Test results published in US20020082420A1, “Bicyclic heterocycles, pharmaceutical compositions containing them, their use, and processes for preparing them” (priority 2000, published 2002).
Where a name gives a salt, the structure may show the parent alone.

| Structure (SMILES) | melting point |
| --- | --- |
| COC(=O)CC(C(=O)OC)N1CCC(Nc2ncc3ncnc(Nc4cccc(Br)c4)c3n2)CC1 (stereo not shown) (as salt: maleate) [Example 6(4), 4-[(3-bromophenyl)amino]-6-({1-[1,2-bis(methoxycarbonyl)ethyl]piperidin-4-yl}amino)pyrimido[5,4-d]pyrimidine] | 193 °C |
| O=C(O)CCN1CCC(Nc2ncc3ncnc(Nc4ccc(F)c(Cl)c4)c3n2)CC1 [Example 1(1), 4-[(3-chloro-4-fluorophenyl)amino]-6-{[1-(2-carboxyethyl)piperidin-4-yl]amino}pyrimido[5,4-d]pyrimidine] | 217 to 225 °C |
| O=C(O)CCCN1CCC(Nc2ncc3ncnc(Nc4ccc(F)c(Cl)c4)c3n2)CC1 [Example 1(2), 4-[(3-chloro-4-fluorophenyl)amino]-6-{[1-(3-carboxypropyl)piperidin-4-yl]amino}pyrimido[5,4-d]pyrimidine] | 145 to 165 °C |
| CN(CCCC(=O)O)[C@H]1CC[C@H](Nc2ncc3ncnc(Nc4ccc(F)c(Cl)c4)c3n2)CC1 [Example 1(5), 4-[(3-chloro-4-fluorophenyl)amino]-6-({trans-4-[N-(3-carboxypropyl)-N-methylamino]cyclohex-1-yl}amino)pyrimido[5,4-d]pyrimidine] | 217 to 221 °C |
| O=C(O)CCN1CCN(c2ncc3ncnc(Nc4ccc(F)c(Cl)c4)c3n2)CC1 [Example 1(7), 4-[(3-chloro-4-fluorophenyl)amino]-6-[4-(2-carboxyethyl)piperazin-1-yl]pyrimido[5,4-d]pyrimidine] | 111 to 145 °C |
| O=C(O)CN1CCN(CCNc2ncc3ncnc(Nc4ccc(F)c(Cl)c4)c3n2)CC1 [Example 1(13), 4-[(3-chloro-4-fluorophenyl)amino]-6-{2-[4-(carboxymethyl)piperazin-1-yl]ethylamino}pyrimido[5,4-d]pyrimidine] | 240 to 242 °C (dec.) |
| NC1(C(=O)O)CCN(c2ncc3ncnc(Nc4ccc(F)c(Cl)c4)c3n2)CC1 [Example 1(14), 4-[(3-chloro-4-fluorophenyl)amino]-6-(4-amino-4-carboxypiperidin-1-yl)pyrimido[5,4-d]pyrimidine] | 277 to 282 °C |
| O=C(O)CCNCC1CCN(c2ncc3ncnc(Nc4ccc(F)c(Cl)c4)c3n2)CC1 [Example 1(16), 4-[(3-chloro-4-fluorophenyl)amino]-6-(4-{[(2-carboxyethyl)amino]methyl}piperidin1-yl)pyrimido[5,4-d]pyrimidine] | 209 to 214 °C |
| O=C(O)CNCC1CCN(c2ncc3ncnc(Nc4ccc(F)c(Cl)c4)c3n2)CC1 [Example 1(17), 4-[(3-chloro-4-fluorophenyl)amino]-6-(4-{[(carboxymethyl)amino]methyl}piperidin-1-yl)pyrimido[5,4-d]pyrimidine] | 226 to 235 °C |
| O=C(O)CN(CC(=O)O)[C@H]1CC[C@H](Nc2ncc3ncnc(Nc4ccc(F)c(Cl)c4)c3n2)CC1 [Example 1(18), 4-[(3-chloro-4-fluorophenyl)amino]-6-({trans-4-[N,N-bis(carboxymethyl)amino]cyclohex-1-yl}amino)pyrimido[5,4-d]pyrimidine] | 245 °C (dec.) |
| O=C(O)CCN(CCC(=O)O)CC1CCN(c2ncc3ncnc(Nc4ccc(F)c(Cl)c4)c3n2)CC1 [Example 1(19), 4-[(3-chloro-4-fluorophenyl)amino]-6-(4-{[N,N-bis(2-carboxyethyl)amino]methyl}piperidin-1-yl)pyrimido[5,4-d]pyrimidine] | 160 to 169 °C |
| O=C(O)CN[C@H]1CC[C@H](Nc2ncc3ncnc(Nc4ccc(F)c(Cl)c4)c3n2)CC1 [Example 1(27), 4-[(3-chloro-4-fluorophenyl)amino]-6-({trans-4-[(carboxymethyl)amino]cyclohex-1-yl}amino)pyrimido [5,4-d]pyrimidine] | 201 to 205 °C (dec.) |
| CC1(NCCC(=O)O)CCN(c2ncc3ncnc(Nc4ccc(F)c(Cl)c4)c3n2)CC1 [Example 1(30), 4-[(3-chloro-4-fluorophenyl)amino]-6-{4-methyl-4-[(2-carboxyethyl)amino]piperidin-1-yl}pyrimido[5,4-d]pyrimidine] | 157 to 160 °C |
| CC1(NCC(=O)O)CCN(c2ncc3ncnc(Nc4ccc(F)c(Cl)c4)c3n2)CC1 [Example 1(32), 4-[(3-chloro-4-fluorophenyl)amino]-6-{4-methyl-4-[(carboxymethyl)amino]piperidin-1-yl}pyrimido[5,4-d]pyrimidine] | 160 °C (dec.) |
| CCCOC(=O)CN1CCC(Nc2ncc3ncnc(Nc4ccc(F)c(Cl)c4)c3n2)CC1 [Example 2(2), 4-[(3-chloro-4-fluorophenyl)amino]-6-({1-[(propyloxycarbonyl)methyl]piperidin-4-yl}amino)pyrimido[5,4-d]pyrimidine] | 135 to 137 °C |
| CC(C)OC(=O)CN1CCC(Nc2ncc3ncnc(Nc4ccc(F)c(Cl)c4)c3n2)CC1 [Example 2(3), 4-[(3-chloro-4-fluorophenyl)amino]-6-({1-[(isopropyloxycarbonyl)methyl]piperidin-4-yl}amino)pyrimido[5,4-d]pyrimidine] | 175 to 177 °C |
| O=C(CN1CCC(Nc2ncc3ncnc(Nc4ccc(F)c(Cl)c4)c3n2)CC1)OC1CCCCC1 [Example 2(4), 4-[(3-chloro-4-fluorophenyl)amino]-6-({1-[(cyclohexyloxycarbonyl)methyl]piperidin-4-yl}amino)pyrimido[5,4-d]pyrimidine] | 184 to 186 °C |
| COC(=O)CCN1CCC(Nc2ncc3ncnc(Nc4ccc(F)c(Cl)c4)c3n2)CC1 [Example 2(5), 4-[(3-chloro-4-fluorophenyl)amino]-6-({1-[2-(methoxycarbonyl)ethyl]piperidin-4-yl}amino)pyrimido[5,4-d]pyrimidine] | 136 to 137 °C |
| COC(=O)CCCN1CCC(Nc2ncc3ncnc(Nc4ccc(F)c(Cl)c4)c3n2)CC1 [Example 2(6), 4-[(3-chloro-4-fluorophenyl)amino]-6-({1-[3-(methoxycarbonyl)propyl]piperidin-4-yl}amino)pyrimido[5,4-d]pyrimidine] | 135 to 137 °C |
| COC(=O)CCN(C)[C@H]1CC[C@H](Nc2ncc3ncnc(Nc4ccc(F)c(Cl)c4)c3n2)CC1 [Example 2(8), 4-[(3-chloro-4-fluorophenyl)amino]-6-[(trans-4-{N-[2-(methoxycarbonyl)ethyl]-N-methylamino}cyclohex-1-yl)amino]pyrimido[5,4-d]pyrimidine] | 126 to 128 °C |
| COC(=O)CCCN(C)[C@H]1CC[C@H](Nc2ncc3ncnc(Nc4ccc(F)c(Cl)c4)c3n2)CC1 [Example 2(9), 4-[(3-chloro-4-fluorophenyl)amino]-6-[(trans-4-{N-[3-(methoxycarbonyl)propyl]-N-methylamino}cyclohex-1-yl)amino]pyrimido[5,4-d]pyrimidine] | 99 to 102 °C |
| COC(=O)CCN1CCN(c2ncc3ncnc(Nc4ccc(F)c(Cl)c4)c3n2)CC1 [Example 2(11), 4-[(3-chloro-4-fluorophenyl)amino]-6-[4-[2-(methoxycarbonyl)ethyl]piperazin-1-yl]pyrimido[5,4-d]pyrimidine] | 140 to 142 °C |
| COC(=O)CCC1CCN(C2CCN(c3ncc4ncnc(Nc5ccc(F)c(Cl)c5)c4n3)C2)CC1 (stereo not shown) [Example 2(16), 4-[(3-chloro-4-fluorophenyl)amino]-6-(3-{4-[2-(methoxycarbonyl)ethyl]piperidin-1-yl}-pyrrolidin-1-yl)pyrimido[5,4-d]pyrimidine] | 166 to 168 °C |
| COC(=O)C1CCCN1CC1CCN(c2ncc3ncnc(Nc4ccc(F)c(Cl)c4)c3n2)CC1 (stereo not shown) [Example 2(21), 4-[(3-chloro-4-fluorophenyl)amino]-6-(4-{[2-(methoxycarbonyl)pyrrolidin 1-yl]methyl}piperidin-1-yl)pyrimido[5,4-d]pyrimidine] | 151 to 154 °C |
| CCOC(=O)CN1CCN(CC2CCN(c3ncc4ncnc(Nc5ccc(F)c(Cl)c5)c4n3)CC2)CC1 [Example 2(22), 4-[(3-chloro-4-fluorophenyl)amino]-6-[4-({4-[(ethoxycarbonyl)methyl]piperazin-1-yl}methyl)piperidin-1-yl]pyrimido[5,4-d]pyrimidine] | 145 to 149 °C |
| CCOC(=O)CN1CCC(Nc2ncc3ncnc(Nc4ccc(F)c(Cl)c4)c3n2)CC1 [Example 2, 4-[(3-chloro-4-fluorophenyl)amino]-6-({1-[(ethoxycarbonyl)methyl]piperidin-4-yl}amino)pyrimido[5,4-d]pyrimidine] | 136 to 138 °C |
| COC(=O)CCNC1(C)CCN(c2ncc3ncnc(Nc4ccc(F)c(Cl)c4)c3n2)CC1 [Example 6(3), 4-[(3-chloro-4-fluorophenyl)amino]-6-{4-methyl-4-[2-(methoxycarbonyl)ethyl]aminopiperidin-1-yl}pyrimido[5,4-d]pyrimidine] | 134 to 135 °C |
| CCOC(=O)CC(CC(=O)OCC)N1CCC(Nc2ncc3ncnc(Nc4cccc(Br)c4)c3n2)CC1 [Example 6(5), 4-[(3-bromophenyl)amino]-6-[(1-{1-[(ethoxycarbonyl)methyl]-2-(ethoxycarbonyl)ethyl}piperidin-4-yl)amino]pyrimido-[5,4-d]pyrimidine] | 132 °C |
